Reference: US20090233910A1, “Npy antagonists, preparation and uses” (CEREP, priority 2005, published 2009)

Assays:
NPY Y1 receptor = molecular target: T1, NPY Y1 receptor (Homo sapiens, UniProt P25929); experiment: Binding test to the NPY Y1 receptor ([125I]-PYY, SK-N-MC cell suspension); details: SK-N-MC cells, 25 pM [125I]-PYY
T1 construct: host or cells: SK-N-MC cells (whole-cell suspension)
T1 sequence (P25929 1-384): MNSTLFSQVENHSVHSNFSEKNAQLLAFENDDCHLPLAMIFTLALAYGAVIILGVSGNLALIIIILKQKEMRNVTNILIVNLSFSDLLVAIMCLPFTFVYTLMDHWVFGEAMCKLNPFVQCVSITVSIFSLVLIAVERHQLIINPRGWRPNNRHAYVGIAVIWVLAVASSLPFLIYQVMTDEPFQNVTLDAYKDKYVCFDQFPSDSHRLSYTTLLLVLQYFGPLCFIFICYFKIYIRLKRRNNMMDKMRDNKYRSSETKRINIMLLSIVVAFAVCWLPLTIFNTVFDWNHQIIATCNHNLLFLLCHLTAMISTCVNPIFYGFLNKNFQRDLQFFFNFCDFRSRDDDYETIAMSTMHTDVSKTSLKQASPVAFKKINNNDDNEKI
Protocol: The SK-N-MC cells (ATCC HBT10) are cultured at 37° C. in MEM medium (minimum essential medium) free of phenol red (Invitrogen ref. 04194565M) containing 10% foetal calf serum (Invitrogen ref. 10270-106), 1% non-essential aminoacids (Invitrogen ref. 11140-035), 1% sodium pyruvate (Invitrogen ref. 11360-039), 1% glutamine (Invitrogen ref. 25030-032), 100 IU/ml of penicillin and 100 μg/ml of streptomycin (Invitrogen ref. 15140-122) in a humid atmosphere containing 5% CO2.
After aspirating the culture medium, the cells are washed with a phosphate buffer pH 7.4 (Invitrogen ref. 14190-094), then lifted with a Versene solution (Invitrogen, ref 15040-033). The cells are centrifuged at 500×g for 10 minutes at 4° C. then resuspended in a freeze buffer pH 7.4 containing 50 mM HEPES (N-2-hydroxyethylpiperazine-N′-2-ethanesulfonic acid), 145 mM sodium chloride, 2.6 mM calcium chloride, 1 mM magnesium chloride, 10 mM glucose, and 1 mg/ml bovine albumin. The cell suspension is aliquoted into twenty million cells per milliliter of buffer and stored at −70° C.
The cell suspension is incubated 2 hours at 37° C. in an incubation buffer pH 7.4 containing 50 mM HEPES, 2.5 mM calcium chloride, 1 mM magnesium chloride, 0.025% sodium azide, 1 mg/ml bovine albumin and 25 pM [^125I]-PYY (Perkin Elmer, NEX341). The reaction is halted by filtering through a GF/B filter pre-treated with 0.3% PEI, and washed three times with 1 ml of 50 mM TRIS buffer [tris(hydroxymethyl)aminomethane]/HCl, pH 7.4. The radioactivity deposited on the filter is measured by liquid scintillation count (TopCount, Packard). Non-specific binding is determined in the presence of 1 μM NPY (Bachem, H3322). Results are expressed as IC50 values in nM calculated by non-linear regression with 4 parameters.

NPY Y2 receptor = molecular target: T2, NPY Y2 receptor (Homo sapiens, UniProt P49146); experiment: Binding test to the NPY Y2 receptor ([125I]-PYY, KAN.TS cell suspension)
T2 construct: host or cells: KAN.TS cells (whole-cell suspension)
T2 sequence (P49146 1-381): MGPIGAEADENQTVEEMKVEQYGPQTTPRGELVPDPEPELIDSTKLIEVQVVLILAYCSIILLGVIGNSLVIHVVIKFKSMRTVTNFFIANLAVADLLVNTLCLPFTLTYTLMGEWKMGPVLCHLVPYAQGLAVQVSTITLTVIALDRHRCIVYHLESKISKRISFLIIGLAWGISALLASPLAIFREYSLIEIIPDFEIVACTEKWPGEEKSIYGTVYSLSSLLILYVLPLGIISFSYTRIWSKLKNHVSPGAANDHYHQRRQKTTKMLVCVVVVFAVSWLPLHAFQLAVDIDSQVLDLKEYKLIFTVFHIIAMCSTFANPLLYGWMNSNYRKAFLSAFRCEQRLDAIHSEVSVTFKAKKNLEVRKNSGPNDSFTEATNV
Protocol: The KAN.TS cells (Amersham RPNQ0081) are cultured at 37° C. in DMEM Glutamax medium (Life Technology ref. 61965026) containing 15% foetal calf serum (Invitrogen), 1% L-Glutamine (Invitrogen ref.250300-032), 50 IU/ml penicillin and 50 μg/ml of streptomycin (Invitrogen ref. 15070022) in a humid atmosphere containing 5% CO2.
After aspirating the culture medium, the cells are washed with phosphate buffer pH 7.4 (Sigma ref. D5652), then lifted with a solution of PBS^−, 0.5 mM EDTA (ethylenediaminetetraacetic acid) (Sigma ref ED 2SS). […] The cells are counted and centrifuged at 1500 rpm for 10 min then resuspended in the freeze buffer and aliquoted into ten million cells per millilitre of freeze buffer, and stored at −70° C.
The cell suspension with 25000 cells/ml is incubated 1 h at 37° C. in an incubation buffer pH 7.4 containing 50 mM HEPES/NaOH, 2.5 mM calcium chloride, 1 mM magnesium chloride, 0.025% sodium azide, 1 mg/ml bovine albumin and 15 pM of [^125I]-PYY (Perkin Elmer, NEX341). […] The radioactivity deposited on the filter is measured by liquid scintillation count (TopCount, Packard). Non-specific binding is determined in the presence of 1 μM NPY (Bachem, H3322). […]

CCCCN1CCC(Oc2ccc(C(=O)Nc3ccc(Oc4ccc(NC(=O)NC(CC)CC)cc4OC)cc3)cc2)CC1 [Example 103, 4-(1-Butyl-piperidin-4-yloxy)-N-(4-{4-[3-(1-ethyl-propyl)-ureido]-2-methoxy-phenoxy}-phenyl)-benzamide] gave an IC50 (NPY Y1 receptor) of 1.8 nM, an IC50 (NPY Y2 receptor; KAN.TS cells, [125I]-PYY) of over 10000 nM and an inhibition at 10 µM (NPY Y2 receptor; inhibition of specific binding at 10 μM of compound, read-out: % Inh at 10 μM Y2) of 10%.
